Measured values taken from ChEMBL document CHEMBL1649250, “Susceptibility of urinary tract bacteria to fosfomycin” (2009).
The source made the active and inactive calls. The rule behind the calls is not given here.

Legend:
Proteus mirabilis = assay: Antimicrobial activity against Proteus mirabilis obtained from urine sample of patient assessed as percent susceptible isolates by disk diffusion method; type: functional
[1] = test system: Staphylococcus epidermidis; assay: Antimicrobial activity against Staphylococcus epidermidis obtained from urine sample of patient assessed as percent susceptible isolates by disk diffusion method; type: functional, organism-based
Klebsiella pneumoniae [2] = assay: Antimicrobial activity against Klebsiella pneumoniae obtained from urine sample of patient assessed as percent susceptible isolates by disk diffusion method; type: functional
Escherichia coli [3] = assay: Antimicrobial activity against cefotaxime-, ceftriaxone-, cefepime-, ceftazidime-, and aztreonam-nonsusceptible Escherichia coli assessed as percent susceptible isolates by disk diffusion method; type: functional
[4] = test system: Staphylococcus saprophyticus; assay: Antimicrobial activity against Staphylococcus saprophyticus obtained from urine sample of patient assessed as percent susceptible isolates by disk diffusion method; type: functional
Pseudomonas aeruginosa [5] = assay: Antimicrobial activity against Pseudomonas aeruginosa obtained from urine sample of patient assessed as percent susceptible isolates by disk diffusion method; type: functional
Enterobacter sp. [6] = assay: Antimicrobial activity against cefotaxime-, ceftriaxone-, cefepime-, ceftazidime-, and aztreonam-nonsusceptible Enterobacter sp. assessed as percent susceptible isolates by disk diffusion method; type: functional
Klebsiella pneumoniae [7] = assay: Antimicrobial activity against cefotaxime-, ceftriaxone-, cefepime-, ceftazidime-, and aztreonam-nonsusceptible Klebsiella pneumoniae assessed as percent susceptible isolates by disk diffusion method; type: functional
Enterococcus faecalis = assay: Antimicrobial activity against Enterococcus faecalis obtained from urine sample of patient assessed as percent susceptible isolates by disk diffusion method; type: functional
Escherichia coli [8] = assay: Antimicrobial activity against […] producing Escherichia coli assessed as percent susceptible isolates by disk diffusion method; type: functional
Escherichia coli [9] = assay: Antimicrobial activity against Escherichia coli obtained from urine sample of patient assessed as percent susceptible isolates by disk diffusion method; type: functional
Pseudomonas aeruginosa [10] = assay: Antimicrobial activity against carbapenemase-nonsusceptible Pseudomonas aeruginosa assessed as percent susceptible isolates by disk diffusion method; type: functional
Serratia marcescens = assay: Antimicrobial activity against Serratia marcescens obtained from urine sample of patient assessed as percent susceptible isolates by disk diffusion method; type: functional
Klebsiella pneumoniae [11] = assay: Antimicrobial activity against carbapenemase producing Klebsiella pneumoniae assessed as percent susceptible isolates by disk diffusion method; type: functional
Klebsiella pneumoniae [12] = assay: Antimicrobial activity against colistin-nonsusceptible Klebsiella pneumoniae assessed as percent susceptible isolates by disk diffusion method; type: functional
[13] = test system: Stenotrophomonas maltophilia; assay: Antimicrobial activity against Stenotrophomonas maltophilia obtained from urine sample of patient assessed as percent susceptible isolates by disk diffusion method; type: functional
Staphylococcus aureus = assay: Antimicrobial activity against Staphylococcus aureus obtained from urine sample of patient assessed as percent susceptible isolates by disk diffusion method; type: functional
Klebsiella oxytoca = assay: Antimicrobial activity against […] producing Klebsiella oxytoca assessed as percent susceptible isolates by disk diffusion method; type: functional
Klebsiella pneumoniae [14] = assay: Antimicrobial activity against […] producing Klebsiella pneumoniae assessed as percent susceptible isolates by disk diffusion method; type: functional
Streptococcus agalactiae = assay: Antimicrobial activity against Streptococcus agalactiae obtained from urine sample of patient assessed as percent susceptible isolates by disk diffusion method; type: functional
Salmonella sp. = assay: Antimicrobial activity against Salmonella sp. obtained from urine sample of patient assessed as percent susceptible isolates by disk diffusion method; type: functional
Acinetobacter baumannii = assay: Antimicrobial activity against Acinetobacter baumannii obtained from urine sample of patient assessed as percent susceptible isolates by disk diffusion method; type: functional
Enterococcus faecium = assay: Antimicrobial activity against Enterococcus faecium obtained from urine sample of patient assessed as percent susceptible isolates by disk diffusion method; type: functional
Enterobacter sp. [15] = assay: Antimicrobial activity against Enterobacter sp. obtained from urine sample of patient assessed as percent susceptible isolates by disk diffusion method; type: functional
Pseudomonas aeruginosa [16] = assay: Antimicrobial activity against cefotaxime-, ceftriaxone-, cefepime-, ceftazidime-, and aztreonam-nonsusceptible Pseudomonas aeruginosa assessed as percent susceptible isolates by disk diffusion method; type: functional
Klebsiella pneumoniae [17] = assay: Antimicrobial activity against carbapenemase-nonsusceptible Klebsiella pneumoniae assessed as percent susceptible isolates by disk diffusion method; type: functional

## C[C@@H]1O[C@@H]1P(=O)(O)O [FOSFOMYCIN]
Proteus mirabilis
  Activity: 96.7%
[1]
  Activity: Active
Klebsiella pneumoniae [2]
  Activity: 82.3%
Escherichia coli [3]
  Activity: 100%
[4]
  Activity: 100%
Pseudomonas aeruginosa [5]
  Activity: 85%
Enterobacter sp. [6]
  Activity: 100%
Klebsiella pneumoniae [7]
  Activity: 75%
Enterococcus faecalis
  Activity: 91.8%
Escherichia coli [8]
  Activity: 100%
Escherichia coli [9]
  Activity: 100%
Pseudomonas aeruginosa [10]
  Activity: 88.8%
Serratia marcescens
  Activity: 66.6%
Klebsiella pneumoniae [11]
  Activity: 60%
Klebsiella pneumoniae [12]
  Activity: 58.3%
[13]
  Activity: 66.6%
Staphylococcus aureus
  Activity: 100%
Klebsiella oxytoca
  Activity: 0%
Klebsiella pneumoniae [14]
  Activity: 100%
Streptococcus agalactiae
  Activity: 50%
Salmonella sp.
  Activity: 66.6%
Acinetobacter baumannii
  Activity: 9%
Enterococcus faecium
  Activity: 0%
Enterobacter sp. [15]
  Activity: 75%
Pseudomonas aeruginosa [16]
  Activity: 17%
Klebsiella pneumoniae [17]
  Activity: 60%
